Source: ChEMBL document CHEMBL1156286, “Inhibition of eEF2-K by thieno[2,3-b]pyridine analogues” (Bioorg Med Chem Lett, 2010)

How the values were obtained:
A549 = assay: Cytotoxicity against human A549 cells after 72 hrs; assay type: functional, cell-based; conditions: A549, 72 h
[1] = molecular target: T1, Eukaryotic elongation factor 2 kinase (Homo sapiens, UniProt O00418); assay: Inhibition of GST tagged eEf2K expressed in Escherichia coli by fluorometric method
T1 sequence (O00418 whole entry): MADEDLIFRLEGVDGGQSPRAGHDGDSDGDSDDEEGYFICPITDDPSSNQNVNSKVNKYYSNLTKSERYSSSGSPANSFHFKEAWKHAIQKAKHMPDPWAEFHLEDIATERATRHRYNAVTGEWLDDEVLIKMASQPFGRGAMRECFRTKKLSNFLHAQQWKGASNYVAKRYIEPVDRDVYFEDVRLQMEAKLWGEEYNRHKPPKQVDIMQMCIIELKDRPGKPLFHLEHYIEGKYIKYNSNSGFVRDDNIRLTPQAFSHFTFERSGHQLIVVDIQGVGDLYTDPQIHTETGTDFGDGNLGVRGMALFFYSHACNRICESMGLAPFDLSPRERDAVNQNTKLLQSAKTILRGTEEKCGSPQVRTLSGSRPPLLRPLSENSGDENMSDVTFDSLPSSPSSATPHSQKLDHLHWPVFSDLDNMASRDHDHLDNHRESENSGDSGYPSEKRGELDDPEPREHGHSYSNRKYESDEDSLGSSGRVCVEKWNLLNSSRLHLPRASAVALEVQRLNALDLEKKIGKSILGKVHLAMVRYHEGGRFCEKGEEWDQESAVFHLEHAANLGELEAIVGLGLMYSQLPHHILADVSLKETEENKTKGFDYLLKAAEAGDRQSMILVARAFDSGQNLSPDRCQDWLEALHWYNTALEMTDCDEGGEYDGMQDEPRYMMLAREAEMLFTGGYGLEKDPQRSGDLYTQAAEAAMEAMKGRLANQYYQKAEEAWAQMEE

HCT-116 = assay: Cytotoxicity against human HCT116 cells after 72 hrs; assay type: functional, cell-based; conditions: HCT-116, 72 h

Row | Compound | EC50 (A549) | IC50 [1] | EC50 (HCT-116)
1 | NC(=O)c1sc2nc3c(cc2c1N)CCCCCC3 | 38 µM | 2.5 µM | 38 µM
2 | CC(C)Cc1c2c(nc3sc(C(N)=O)c(N)c13)CCCCCC2 | – | 0.86 µM | –
3 | NC(=O)c1sc2nc3c(c(C4CC4)c2c1N)CCCCCC3 | – | 2 µM | –
4 | NC(=O)c1sc2nc3c(c(-c4ccc(C(F)(F)F)o4)c2c1N)CCCCCC3 | – | 0.3 µM | –
5 | NC(=O)c1sc2nc(CC3CCCCC3)cc(-c3ccco3)c2c1N | – | > 10 µM | –
6 | NC(=O)c1sc2nc3c(c(-c4ccoc4)c2c1N)CCCCCC3 | – | 1.1 µM | –
7 | COC(=O)c1oc(-c2c3c(nc4sc(C(N)=O)c(N)c24)CCCCCC3)cc1C | – | > 20 µM | –
8 | Nc1ncnc2c1sc1nc3c(c(-c4ccco4)c12)CCCCC3 | 17 µM | 4.7 µM | > 100 µM
9 | COc1ccc(-c2cc(-c3ccco3)c3c(N)c(C(N)=O)sc3n2)c(OC)c1 | – | > 10 µM | –
10 | NC(=O)c1sc2nc3c(c(-c4ccccc4)c2c1N)CCCCCC3 | – | > 20 µM | –
11 | NC(=O)c1sc2nc3c(c(-c4nccs4)c2c1N)CCCCCC3 | – | 1.4 µM | –
12 | Cc1cccnc1-c1c2c(nc3sc(C(N)=O)c(N)c13)CCCCCC2 | – | > 20 µM | –
13 | NC(=O)c1sc2nc3c(c(CCc4ccccc4)c2c1N)CCCCCC3 | – | > 20 µM | –
14 | COc1ccc(F)c(-c2c3c(nc4sc(C(N)=O)c(N)c24)CCCCCC3)c1 | – | 1.3 µM | –
15 | NC(=O)c1sc2nc3c(c(-c4cc5ccccc5o4)c2c1N)CCCCCC3 | – | 0.33 µM | –
16 | CCc1ccc(-c2c3c(nc4sc(C(N)=O)c(N)c24)CCCCCC3)o1 | – | 0.66 µM | –
17 | Nc1ncnc2c1sc1nc(N3CCOCC3)c3c(c12)CCCC3 | 6.7 µM | 0.22 µM | 29 µM
18 | Nc1ncnc2c1sc1nc3c(cc12)CCCCCCC3 | – | 3.7 µM | –

Row | Compound | EC50 (A549) | IC50 [1] | EC50 (HCT-116)
19 | Nc1ncnc2c1sc1nc3c(c(-c4ccco4)c12)CCCCCCC3 | – | 0.35 µM | –
20 | NC(=O)c1sc2nc3c(c(-c4ccc(CO)o4)c2c1N)CCCCCC3 | – | 0.8 µM | –
21 | Cc1cc(-c2c3c(nc4sc(C(N)=O)c(N)c24)CCCCCC3)oc1C | – | 1.1 µM | –
22 | Cc1c2c(nc3sc(C(N)=O)c(N)c13)CCCCCC2 | – | 1.1 µM | –
23 | NC(=O)c1sc2nc3c(c(/C=C/c4ccco4)c2c1N)CCCCCC3 | 15 µM | 0.32 µM | 19 µM
24 | Cc1ccsc1-c1c2c(nc3sc(C(N)=O)c(N)c13)CCCCCC2 | – | 0.46 µM | –
25 | Cc1cccc(-c2c3c(nc4sc(C(N)=O)c(N)c24)CCCCCC3)c1 | – | 1.2 µM | –
26 | Cn1cccc1-c1c2c(nc3sc(C(N)=O)c(N)c13)CCCCCC2 | – | 0.99 µM | –
27 | COc1ccc(Cc2cc(-c3ccco3)c3c(N)c(C(N)=O)sc3n2)c(OC)c1 | – | > 10 µM | –
28 | NC(=O)c1sc2nc3c(c(-c4ccco4)c2c1N)CCCCCCC3 | – | – | 17 µM
29 | NC(=O)c1sc2nc3c(c(-c4ccc(Cl)c(Cl)c4)c2c1N)CCCCCC3 | – | 0.99 µM | –
30 | NC(=O)c1sc2nc3c(c(-c4ccco4)c2c1N)CCCCCCCC3 | – | > 20 µM | –
31 | NC(=O)c1sc2nc3c(c(-c4ccc(Cl)cc4)c2c1N)CCCCCC3 | – | 1.1 µM | –
32 | NC(=O)c1sc2nc3c(c(-c4ccco4)c2c1N)CCCCC3 | – | 1.1 µM | –
33 | NC(=O)c1sc2nc3c(c(-c4ccc(Cl)o4)c2c1N)CCCCCC3 | 64 µM | 0.28 µM | 100 µM
34 | NC(=O)c1sc2nc3c(c(-c4ccco4)c2c1N)CCCCCC3 | – | 0.64 µM | –
35 | CC1CCCc2c1nc1sc(C(N)=O)c(N)c1c2-c1ccco1 (racemic) | – | > 20 µM | –
36 | CC(C)=CCCC(C)c1c2c(nc3sc(C(N)=O)c(N)c13)CCCCCC2 (racemic) | – | 10 µM | –
